In patent US9850283B2, “Macrocyclic inhibitors of the PD-1/PD-L1 and CD80(B7-1)/PD-L1 protein/protein interactions” (BRISTOL-MYERS SQUIBB COMPANY, priority 2013, dated 2017):
pIC50: −log10 of the molar value. Read-outs that look alike come from different tables or passages of the source. Starred links: 1 amine or outer side, 2 acyl side, 3 side chain; linkers in the order of their positions; H or OH if unused. Positions of bridges follow the written chain, without caps; N, C: chain ends. Non-standard residues stand in square brackets, D forms with d. Residues, ends and D or L forms follow the SMILES beside them. ξ: configuration not given here. X2 = CCOc1ccc(-c2[nH]c3ccccc3c2C[C@H](N[*:1])C(=O)[*:2])cc1; X7 = COc1ccc(-c2[nH]c3ccccc3c2C[C@H](N[*:1])C(=O)[*:2])cc1; Phe(3,4-Me2) = Cc1ccc(C[C@H](N)C(=O)O)cc1C; Phe(2-OMe) = COc1ccccc1C[C@H](N)C(=O)O; Phe(3-F) = N[C@@H](Cc1cccc(F)c1)C(=O)O; hhPhe = N[C@@H](CCCc1ccccc1)C(=O)O; Hyp = O=C(O)[C@@H]1C[C@@H](O)CN1; AllylGly = C=CC[C@H](N)C(=O)O; NMeNle = CCCC[C@H](NC)C(=O)O; ξR = N=C(N)NCCCC(N)C(=O)O; NMeA = CN[C@@H](C)C(=O)O; Dab = NCC[C@H](N)C(=O)O; Dap = NC[C@H](N)C(=O)O

Columns and labels:
[1] = target: T1, LK35.2-hPD-L1 cells / PE-labeled PD-1-Ig (Homo sapiens, UniProt Q9NZQ7); assay: LK35.2-hPD-L1 cell binding high-content screening assay; format: cell-based; details: cell binding assay, cell line not given
T1 construct: expressed in transfected cells; host or cells: LK35.2 mouse B cell line
T1 sequence (Q9NZQ7 19-290): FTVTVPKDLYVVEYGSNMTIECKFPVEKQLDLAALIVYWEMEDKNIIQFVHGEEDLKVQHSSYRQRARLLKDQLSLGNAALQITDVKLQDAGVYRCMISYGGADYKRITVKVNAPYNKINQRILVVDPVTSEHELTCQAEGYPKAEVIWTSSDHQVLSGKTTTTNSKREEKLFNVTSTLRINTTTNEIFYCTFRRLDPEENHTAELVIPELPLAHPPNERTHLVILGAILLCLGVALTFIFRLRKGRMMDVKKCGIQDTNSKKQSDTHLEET
How it was run: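 Binding of PE-conjugated human PD-1-Ig (1 nM final) to human PD-L1 stably expressed on a mouse B-cell line (LK35.2) was measured by high-content imaging after washes. Compound and labeled PD-1-Ig were co-incubated 1 h at 37 °C with cells in RPMI/10% FCS.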

Human PD-L1/PD-1 = target: T2, Human PD-L1/PD-1 (Homo sapiens, UniProt Q9NZQ7); assay: HTRF PD-1-Ig/PD-L1-His binding assay (human PD-L1)
T2 construct: made in house; host or cells: HEK293T
T2 sequence (Q9NZQ7 with tags, fused parts or gaps): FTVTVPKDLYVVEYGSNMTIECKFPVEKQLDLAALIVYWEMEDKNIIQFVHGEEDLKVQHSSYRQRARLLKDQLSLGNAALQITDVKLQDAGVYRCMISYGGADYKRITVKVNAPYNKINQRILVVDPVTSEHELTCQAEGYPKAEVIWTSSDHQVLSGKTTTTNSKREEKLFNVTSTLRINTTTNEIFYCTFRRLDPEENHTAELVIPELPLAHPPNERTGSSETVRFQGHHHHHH
How it was run: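 Soluble Fc-fused PD-1 and His-tagged PD-L1 (truncated before the transmembrane region) were combined in dPBS with 0.1% (w/v) BSA and 0.05% (v/v) Tween-20. Binding was read by HTRF using europium cryptate anti-Ig antibody (1 nM final) and APC anti-His antibody (20 nM final).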

[2] = cluster symbol, read-out: CBA IC50 cluster
[3] = cluster symbol, read-out: HTRF IC50 cluster

SMILES	pIC50 [1, 2]	pIC50 (Human PD-L1/PD-1; [3])	pIC50 ([1]; value given instead of cluster, read-out: CBA IC50 value)	pIC50 (Human PD-L1/PD-1; value given instead of cluster, read-out: HTRF IC50 value)
CCCC[C@H]1C(=O)N(C)[C@@H](CCCC)C(=O)NC(CCCNC(=N)N)C(=O)N[C@H](C(=O)NCC(N)=O)CSCC(=O)N[C@@H](Cc2ccc(O)cc2)C(=O)N(C)[C@@H](C)C(=O)N[C@@H](CC(N)=O)C(=O)N2CCC[C@H]2C(=O)N[C@@H](CN)C(=O)N[C@@H](CC(C)C)C(=O)N2C[C@H](O)C[C@H]2C(=O)N[C@@H](Cc2c[nH]c3ccccc23)C(=O)N[C@@H](CO)C(=O)N[C@@H](Cc2c(-c3ccc(OC)cc3)[nH]c3ccccc23)C(=O)N1C (stereo partly shown) [Example 7006] ({CH2CO}-Y[NMeA]NP[Dap]L[Hyp]WS[X7][NMeNle][NMeNle][ξR]CG-NH2; thioether N-14)	8.33 to 9.80	8.17 to 9.41	–	–
CCCC[C@H]1C(=O)N(C)[C@@H](CCCC)C(=O)NC(CCCNC(=N)N)C(=O)N[C@H](C(=O)NCC(N)=O)CSCC(=O)N[C@@H](Cc2ccc(O)cc2)C(=O)N(C)[C@@H](C)C(=O)N[C@@H](CC(N)=O)C(=O)N2CCC[C@H]2C(=O)N[C@@H](CN)C(=O)N[C@@H](CC(C)C)C(=O)N2CCC[C@H]2C(=O)N[C@@H](Cc2c[nH]c3ccccc23)C(=O)N[C@@H](CO)C(=O)N[C@@H](Cc2c(-c3ccc(OC)cc3)[nH]c3ccccc23)C(=O)N1C (stereo partly shown) [Example 7008] ({CH2CO}-Y[NMeA]NP[Dap]LPWS[X7][NMeNle][NMeNle][ξR]CG-NH2; thioether N-14)	8.33 to 9.80	8.17 to 9.41	–	–
CCCC[C@H]1C(=O)N(C)[C@@H](CCCC)C(=O)NC(CCCNC(=N)N)C(=O)N[C@H](C(=O)NCC(N)=O)CSCC(=O)N[C@@H](Cc2ccc(O)cc2)C(=O)N(C)[C@@H](C)C(=O)N[C@@H](CC(N)=O)C(=O)N2CCC[C@H]2C(=O)N[C@@H](CN)C(=O)N[C@@H](CC(C)C)C(=O)N2C[C@H](O)C[C@H]2C(=O)N[C@@H](Cc2c[nH]c3ccccc23)C(=O)N[C@@H](CO)C(=O)N[C@@H](Cc2c(-c3ccc(OCC)cc3)[nH]c3ccccc23)C(=O)N1C (stereo partly shown) [Example 7009] ({CH2CO}-Y[NMeA]NP[Dap]L[Hyp]WS[X2][NMeNle][NMeNle][ξR]CG-NH2; thioether N-14)	8.33 to 9.80	8.17 to 9.41	–	–
CCCC[C@H]1C(=O)N(C)[C@@H](CCCC)C(=O)NC(CCCNC(=N)N)C(=O)N[C@H](C(=O)NCC(N)=O)CSCC(=O)N[C@@H](Cc2ccc(O)cc2)C(=O)N(C)[C@@H](C)C(=O)N[C@@H](CC(N)=O)C(=O)N2CCC[C@H]2C(=O)N[C@@H](CCN)C(=O)N[C@@H](CC(C)C)C(=O)N2C[C@H](O)C[C@H]2C(=O)N[C@@H](Cc2c[nH]c3ccccc23)C(=O)N[C@@H](CO)C(=O)N[C@@H](Cc2c(-c3ccc(OCC)cc3)[nH]c3ccccc23)C(=O)N1C (stereo partly shown) [Example 7010] ({CH2CO}-Y[NMeA]NP[Dab]L[Hyp]WS[X2][NMeNle][NMeNle][ξR]CG-NH2; thioether N-14)	7.14 to 8.32	8.17 to 9.41	–	–
CCCC[C@H]1C(=O)N(C)[C@@H](CCCC)C(=O)NC(CCCNC(=N)N)C(=O)N[C@H](C(=O)NCC(N)=O)CSCC(=O)N[C@@H](Cc2ccc(O)cc2)C(=O)N(C)[C@@H](C)C(=O)N[C@@H](CC(N)=O)C(=O)N2CCC[C@H]2C(=O)N[C@@H](CN)C(=O)N[C@@H](CC(C)C)C(=O)N2CCC[C@H]2C(=O)N[C@@H](Cc2c[nH]c3ccccc23)C(=O)N[C@@H](CO)C(=O)N[C@@H](Cc2c(-c3ccc(OCC)cc3)[nH]c3ccccc23)C(=O)N1C (stereo partly shown) [Example 7011] ({CH2CO}-Y[NMeA]NP[Dap]LPWS[X2][NMeNle][NMeNle][ξR]CG-NH2; thioether N-14)	7.14 to 8.32	8.17 to 9.41	–	–
CCCC[C@H]1C(=O)N(C)[C@@H](CCCC)C(=O)N[C@@H](CCCNC(=N)N)C(=O)N[C@H](C(=O)NCC(N)=O)C/C=C/C(=O)N[C@@H](Cc2ccc(O)cc2)C(=O)N(C)[C@@H](C)C(=O)N[C@@H](CC(N)=O)C(=O)N2CCCC2C(=O)N[C@@H](Cc2cnc[nH]2)C(=O)N[C@@H](CC(C)C)C(=O)N2CCC[C@H]2C(=O)N[C@@H](Cc2c[nH]c3ccccc23)C(=O)N[C@@H](CO)C(=O)N[C@@H](Cc2c[nH]c3ccccc23)C(=O)N1C (stereo partly shown) [Example 7012]	< 7.13	< 7.52	–	–
CCCC[C@H]1C(=O)N(C)[C@@H](CCCC)C(=O)N[C@@H](CCCNC(=N)N)C(=O)N[C@H](C(=O)NCC(N)=O)C/C=C/C(=O)N[C@@H](Cc2ccc(O)cc2)C(=O)N(C)[C@@H](C)C(=O)N[C@@H](CC(N)=O)C(=O)N2CCCC2C(=O)N[C@@H](CN)C(=O)N[C@@H](CC(C)C)C(=O)N2C[C@H](O)C[C@H]2C(=O)N[C@@H](Cc2c[nH]c3ccccc23)C(=O)N[C@@H](CO)C(=O)N[C@@H](Cc2c[nH]c3ccccc23)C(=O)N1C (stereo partly shown) [Example 7013]	7.14 to 8.32	7.52 to 8.17	–	–

The next lines start with the values.

pIC50 [1, 2]	pIC50 (Human PD-L1/PD-1; [3])	pIC50 ([1]; value given instead of cluster, read-out: CBA IC50 value)	pIC50 (Human PD-L1/PD-1; value given instead of cluster, read-out: HTRF IC50 value)	SMILES
8.33 to 9.80	8.17 to 9.41	–	–	C=CC[C@@H]1NC(=O)[C@H](Cc2c[nH]c3ccccc23)NC(=O)[C@@H]2CCCN2C(=O)[C@H](CC(C)C)NC(=O)[C@H](Cc2cnc[nH]2)NC(=O)[C@@H]2CCCN2C(=O)[C@H](CC(N)=O)NC(=O)[C@H](C)N(C)C(=O)[C@H](Cc2ccc(O)cc2)NC(=O)CSC[C@@H](C(=O)NCC(N)=O)NC(=O)[C@H](CC=C)NC(=O)[C@H](CCCC)N(C)C(=O)[C@H](CCCC)N(C)C(=O)[C@H](Cc2c[nH]c3ccccc23)NC1=O [Example 7014] ({CH2CO}-Y[NMeA]NPHLPW[AllylGly]W[NMeNle][NMeNle][AllylGly]CG-NH2; thioether N-14)
7.14 to 8.32	7.52 to 8.17	–	–	CCCC[C@H]1C(=O)N(C)[C@@H](CCCC)C(=O)N[C@@H](CCCNC(=N)N)C(=O)N[C@H](C(=O)NCC(N)=O)CSCC(=O)N[C@@H](Cc2ccc(C)c(C)c2)C(=O)N(C)[C@@H](C)C(=O)N[C@@H](CC(N)=O)C(=O)N2CCC[C@H]2C(=O)N[C@@H](Cc2cnc[nH]2)C(=O)N[C@@H](CC(C)C)C(=O)N2CCC[C@H]2C(=O)N[C@@H](Cc2c[nH]c3ccccc23)C(=O)N[C@@H](CO)C(=O)N[C@@H](Cc2c[nH]c3ccccc23)C(=O)N1C [Example 7015] ({CH2CO}-[Phe(3,4-Me2)][NMeA]NPHLPWSW[NMeNle][NMeNle]RCG-NH2; thioether N-14)
7.14 to 8.32	7.52 to 8.17	–	–	CCCC[C@H]1C(=O)N(C)[C@@H](CCCC)C(=O)N[C@@H](CCCNC(=N)N)C(=O)N[C@H](C(=O)NCC(N)=O)CSCC(=O)N[C@@H](Cc2cccc(F)c2)C(=O)N(C)[C@@H](C)C(=O)N[C@@H](CC(N)=O)C(=O)N2CCC[C@H]2C(=O)N[C@@H](Cc2cnc[nH]2)C(=O)N[C@@H](CC(C)C)C(=O)N2CCC[C@H]2C(=O)N[C@@H](Cc2c[nH]c3ccccc23)C(=O)N[C@@H](CO)C(=O)N[C@@H](Cc2c[nH]c3ccccc23)C(=O)N1C [Example 7016] ({CH2CO}-[Phe(3-F)][NMeA]NPHLPWSW[NMeNle][NMeNle]RCG-NH2; thioether N-14)
7.14 to 8.32	8.17 to 9.41	–	–	CCCC[C@H]1C(=O)N(C)[C@@H](CCCC)C(=O)N[C@@H](CCCNC(=N)N)C(=O)N[C@H](C(=O)NCC(N)=O)CSCC(=O)N[C@@H](Cc2ccccc2OC)C(=O)N(C)[C@@H](C)C(=O)N[C@@H](CC(N)=O)C(=O)N2CCC[C@H]2C(=O)N[C@@H](Cc2cnc[nH]2)C(=O)N[C@@H](CC(C)C)C(=O)N2CCC[C@H]2C(=O)N[C@@H](Cc2c[nH]c3ccccc23)C(=O)N[C@@H](CO)C(=O)N[C@@H](Cc2c[nH]c3ccccc23)C(=O)N1C [Example 7017] ({CH2CO}-[Phe(2-OMe)][NMeA]NPHLPWSW[NMeNle][NMeNle]RCG-NH2; thioether N-14)
–	–	6.64	7.87	CCCC[C@H]1C(=O)N(C)[C@@H](CCCC)C(=O)N[C@@H](CCCNC(=N)N)C(=O)N[C@H](C(=O)NCC(N)=O)CSCC(=O)N[C@@H](CCCc2ccccc2)C(=O)N(C)[C@@H](C)C(=O)N[C@@H](CC(N)=O)C(=O)N2CCC[C@H]2C(=O)N[C@@H](Cc2cnc[nH]2)C(=O)N[C@@H](CC(C)C)C(=O)N2CCC[C@H]2C(=O)N[C@@H](Cc2c[nH]c3ccccc23)C(=O)N[C@@H](CO)C(=O)N[C@@H](Cc2c[nH]c3ccccc23)C(=O)N1C [Example 7018] ({CH2CO}-[hhPhe][NMeA]NPHLPWSW[NMeNle][NMeNle]RCG-NH2; thioether N-14)
8.33 to 9.80	8.17 to 9.41	–	–	C=CC[C@@H]1NC(=O)[C@H](Cc2c[nH]c3ccccc23)NC(=O)[C@@H]2C[C@@H](O)CN2C(=O)[C@H](CC(C)C)NC(=O)[C@H](Cc2cnc[nH]2)NC(=O)[C@@H]2CCCN2C(=O)[C@H](CC(N)=O)NC(=O)[C@H](C)N(C)C(=O)[C@H](Cc2ccc(O)cc2)NC(=O)CSC[C@@H](C(=O)NCC(N)=O)NC(=O)[C@H](CC=C)NC(=O)[C@H](CCCC)N(C)C(=O)[C@H](CCCC)N(C)C(=O)[C@H](Cc2c[nH]c3ccccc23)NC1=O [Example 7019] ({CH2CO}-Y[NMeA]NPHL[Hyp]W[AllylGly]W[NMeNle][NMeNle][AllylGly]CG-NH2; thioether N-14)
7.14 to 8.32	8.17 to 9.41	–	–	C=CC[C@@H]1NC(=O)[C@H](Cc2c[nH]c3ccccc23)NC(=O)[C@@H]2CCCN2C(=O)[C@H](CC(C)C)NC(=O)[C@H](Cc2cnc[nH]2)NC(=O)[C@@H]2CCCN2C(=O)[C@H](CC(N)=O)NC(=O)[C@H](C)N(C)C(=O)[C@H](Cc2ccc(O)cc2)NC(=O)CSC[C@@H](C(=O)NCC(N)=O)NC(=O)[C@H](C)NC(=O)[C@H](CCCC)N(C)C(=O)[C@H](CCCC)N(C)C(=O)[C@H](Cc2c[nH]c3ccccc23)NC1=O [Example 7020] ({CH2CO}-Y[NMeA]NPHLPW[AllylGly]W[NMeNle][NMeNle]ACG-NH2; thioether N-14)
